ChEMBL document CHEMBL2146473 (Bioorg Med Chem, 2012)
Calls of active or inactive are those of the source. The calls are words filed in the database; no cut-off is given here.

Columns and labels:
Rattus norvegicus [1] = organism: Rattus norvegicus; experiment: animal or person; type: functional; details: Wistar, Plasma, po, 0.5 h
Rattus norvegicus [2] = organism: Rattus norvegicus; experiment: animal or person; type: functional; details: Wistar, Plasma, po, 9 h
Dipeptidyl peptidase 4 = Dipeptidyl peptidase 4 (Rattus norvegicus, UniProt P14740); type: cell-free, Plasma
Description: Inhibition of DPP4 in rat plasma using GLY-Pro-MCA as substrate after 60 mins by fluorescence assay

[3] = Cmax in rat at 0.3 mg/kg, po; type: ADME, organism-based; set-up: dose 0.3 mg/kg, route oral; details: in vivo
[4] = Cmax in rat at 1 mg/kg, po; type: ADME, organism-based; set-up: dose 1 mg/kg, route oral; details: in vivo
[5] = Tmax in monkey at 0.3 mg/kg, po; type: ADME, organism-based, Macaca mulatta; set-up: dose 0.3 mg/kg, route oral; details: rhesus monkey, in vivo
[6] = Terminal half life in rat at 0.1 mg/kg, po; type: ADME, organism-based; set-up: dose 0.1 mg/kg, route oral; details: in vivo, read-out: beta t1/2 (converted)
[7] = Cmax in monkey at 0.3 mg/kg, po; type: ADME, organism-based, Macaca mulatta; set-up: dose 0.3 mg/kg, route oral; details: rhesus monkey, in vivo
[8] = AUC (0 to infinity) in monkey at 0.3 mg/kg, po; type: ADME, organism-based, Macaca mulatta; set-up: time infinity, dose 0.3 mg/kg, route oral; details: rhesus monkey, plasma
[9] = Terminal half life in rat at 1 mg/kg, po; type: ADME, organism-based; set-up: dose 1 mg/kg, route oral; details: in vivo, read-out: beta t1/2 (converted)
[10] = Oral bioavailability in rat at 0.3 mg/kg; type: ADME, organism-based; details: in vivo
[11] = Tmax in rat at 0.3 mg/kg, po; type: ADME, organism-based; set-up: dose 0.3 mg/kg, route oral; details: in vivo
[12] = Terminal half life in rat at 0.3 mg/kg, po; type: ADME, organism-based; set-up: dose 0.3 mg/kg, route oral; details: in vivo, read-out: beta t1/2 (converted)
[13] = Oral bioavailability in monkey at 0.1 mg/kg; type: ADME, organism-based, Macaca mulatta; details: rhesus monkey, in vivo
[14] = Tmax in monkey at 0.1 mg/kg, po; type: ADME, organism-based, Macaca mulatta; set-up: dose 0.1 mg/kg, route oral; details: rhesus monkey, in vivo
[15] = AUC (0 to infinity) in monkey at 0.1 mg/kg, po; type: ADME, organism-based, Macaca mulatta; set-up: time infinity, dose 0.1 mg/kg, route oral; details: rhesus monkey, plasma
[16] = Oral bioavailability in monkey at 1 mg/kg; type: ADME, organism-based, Macaca mulatta; details: rhesus monkey, in vivo
[17] = Terminal half life in monkey at 0.3 mg/kg, po; type: ADME, organism-based, Macaca mulatta; set-up: dose 0.3 mg/kg, route oral; details: rhesus monkey, in vivo, read-out: beta t1/2 (converted)
[18] = Cmax in monkey at 1 mg/kg, po; type: ADME, organism-based, Macaca mulatta; set-up: dose 1 mg/kg, route oral; details: rhesus monkey, in vivo
[19] = AUC (0 to infinity) in rat at 0.1 mg/kg, po; type: ADME, organism-based; set-up: dose 0.1 mg/kg, route oral, time infinity; details: plasma
[20] = Oral bioavailability in rat at 1 mg/kg; type: ADME, organism-based; details: in vivo
[21] = Terminal half life in monkey at 0.1 mg/kg, po; type: ADME, organism-based, Macaca mulatta; set-up: dose 0.1 mg/kg, route oral; details: rhesus monkey, in vivo, read-out: beta t1/2 (converted)
[22] = Terminal half life in monkey at 1 mg/kg, po; type: ADME, organism-based, Macaca mulatta; set-up: dose 1 mg/kg, route oral; details: rhesus monkey, in vivo, read-out: beta t1/2 (converted)
[23] = Tmax in monkey at 1 mg/kg, po; type: ADME, organism-based, Macaca mulatta; set-up: dose 1 mg/kg, route oral; details: rhesus monkey, in vivo
[24] = AUC (0 to infinity) in monkey at 1 mg/kg, po; type: ADME, organism-based, Macaca mulatta; set-up: time infinity, dose 1 mg/kg, route oral; details: rhesus monkey, plasma
[25] = Oral bioavailability in monkey at 0.3 mg/kg; type: ADME, organism-based, Macaca mulatta; details: rhesus monkey, in vivo
[26] = Cmax in rat at 0.1 mg/kg, po; type: ADME, organism-based; set-up: dose 0.1 mg/kg, route oral; details: in vivo
[27] = AUC (0 to infinity) in rat at 0.3 mg/kg, po; type: ADME, organism-based; set-up: time infinity, dose 0.3 mg/kg, route oral; details: plasma
[28] = Oral bioavailability in rat at 0.1 mg/kg; type: ADME, organism-based; details: in vivo
[29] = AUC (0 to infinity) in rat at 1 mg/kg, po; type: ADME, organism-based; set-up: time infinity, dose 1 mg/kg, route oral; details: plasma
[30] = Tmax in rat at 0.1 mg/kg, po; type: ADME, organism-based; set-up: dose 0.1 mg/kg, route oral; details: in vivo
[31] = Cmax in monkey at 0.1 mg/kg, po; type: ADME, organism-based, Macaca mulatta; set-up: dose 0.1 mg/kg, route oral; details: rhesus monkey, in vivo
[32] = Tmax in rat at 1 mg/kg, po; type: ADME, organism-based; set-up: dose 1 mg/kg, route oral; details: in vivo
Rattus norvegicus [33] = experiment: Inhibition of DPP4 in po dosed Wistar rat plasma using GLY-Pro-MCA as substrate after 48 hrs by fluorescence assay; type: functional, organism-based
Rattus norvegicus [34] = experiment: Antidiabetic activity in Zucker fatty rat assessed as decrease in plasma glucose excursion at 0.03 to 1 mg/kg, po administered 30 mins prior to glucose challenge by oral glucose tolerance test; type: functional, organism-based
Rattus norvegicus [35] = experiment: Sustained inhibition of DPP4 in Wistar rat plasma using GLY-Pro-MCA as substrate at 1 mg/kg, po measured up to 24 hrs by fluorescence assay; type: functional, organism-based; set-up: dose 1 mg/kg
Rattus norvegicus [36] = experiment: Antidiabetic activity in Zucker fatty rat assessed as normalization of glucose excursion at 0.03 mg/kg, po administered 30 mins prior to glucose challenge by oral glucose tolerance test relative to lean-control; type: functional, organism-based; set-up: dose 0.03 mg/kg
Rattus norvegicus [37] = experiment: Antidiabetic activity in Zucker fatty rat assessed as decrease in AUC (0 to 60 mins) of plasma glucose level at 0.03 to 1 mg/kg, po administered 30 mins prior to glucose challenge by oral glucose tolerance test; type: functional, organism-based

Sequence of Dipeptidyl peptidase 4 (P14740 whole entry): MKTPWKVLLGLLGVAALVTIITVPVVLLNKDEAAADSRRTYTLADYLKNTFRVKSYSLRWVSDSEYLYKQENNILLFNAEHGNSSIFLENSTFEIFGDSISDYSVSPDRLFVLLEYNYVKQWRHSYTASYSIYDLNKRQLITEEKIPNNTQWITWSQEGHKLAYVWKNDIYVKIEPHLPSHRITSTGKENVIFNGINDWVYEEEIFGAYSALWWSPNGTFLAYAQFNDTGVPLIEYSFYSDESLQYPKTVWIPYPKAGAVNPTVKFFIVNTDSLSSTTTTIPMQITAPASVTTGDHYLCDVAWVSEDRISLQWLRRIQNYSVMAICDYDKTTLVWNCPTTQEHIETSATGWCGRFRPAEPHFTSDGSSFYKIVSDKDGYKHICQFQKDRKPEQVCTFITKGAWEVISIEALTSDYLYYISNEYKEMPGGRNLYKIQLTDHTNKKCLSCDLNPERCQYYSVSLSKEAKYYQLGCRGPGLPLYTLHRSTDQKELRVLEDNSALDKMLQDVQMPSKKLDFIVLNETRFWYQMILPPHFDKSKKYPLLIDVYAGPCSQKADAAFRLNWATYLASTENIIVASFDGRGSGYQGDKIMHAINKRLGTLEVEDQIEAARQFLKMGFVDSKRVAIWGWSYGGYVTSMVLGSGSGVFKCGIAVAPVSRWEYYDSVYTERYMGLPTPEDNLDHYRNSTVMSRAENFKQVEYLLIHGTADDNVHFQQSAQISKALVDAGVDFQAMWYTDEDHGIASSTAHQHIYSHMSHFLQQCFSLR

O=C([C@@H]1C[C@H](N2CCN(c3cc(C(F)(F)F)nn3-c3ccccc3)CC2)CN1)N1CCSC1
inhibition in vivo at 3 µmol/kg (Rattus norvegicus [1]): 87.4%
inhibition in vivo at 3 µmol/kg (Rattus norvegicus [2]): 81.8%

Cc1cc(N2CCN([C@@H]3CN[C@H](C(=O)N4CCSC4)C3)CC2)n(-c2ccccn2)n1
inhibition in vivo at 3 µmol/kg (Rattus norvegicus [1]): 83%
inhibition in vivo at 3 µmol/kg (Rattus norvegicus [2]): 53.7%

O=C([C@@H]1C[C@H](N2CCN(c3nccn3-c3ccccc3)CC2)CN1)N1CCSC1
inhibition in vivo at 3 µmol/kg (Rattus norvegicus [1]): 59.3%
IC50 (Dipeptidyl peptidase 4): 0.19 nM
inhibition in vivo at 3 µmol/kg (Rattus norvegicus [2]): 58%

O=C([C@@H]1C[C@H](N2CCN(c3nnnn3-c3ccccc3)CC2)CN1)N1CCSC1
inhibition in vivo at 3 µmol/kg (Rattus norvegicus [1]): 85.1%
IC50 (Dipeptidyl peptidase 4): 0.18 nM
inhibition in vivo at 3 µmol/kg (Rattus norvegicus [2]): 70.7%

Cc1cc(N2CCN([C@@H]3CN[C@H](C(=O)N4CCSC4)C3)CC2)n(-c2cccc(F)c2)n1
inhibition in vivo at 3 µmol/kg (Rattus norvegicus [1]): 96.1%
IC50 (Dipeptidyl peptidase 4): 0.49 nM
inhibition in vivo at 3 µmol/kg (Rattus norvegicus [2]): 75.1%

O=C([C@@H]1C[C@H](N2CCN(c3ccnn3-c3ccccc3)CC2)CN1)N1CCSC1
inhibition in vivo at 3 µmol/kg (Rattus norvegicus [1]): 90.6%
IC50 (Dipeptidyl peptidase 4): 0.69 nM
inhibition in vivo at 3 µmol/kg (Rattus norvegicus [2]): 50.8%

Br.Cc1cc(N2CCN([C@@H]3CN[C@H](C(=O)N4CCSC4)C3)CC2)n(-c2ccccc2)n1
Cmax [3]: 20.6 ng/mL
Cmax [4]: 152 ng/mL
Tmax [5]: 1.38 h
half-life [6]: 15.8 h
Cmax [7]: 85.1 ng/mL
AUC(0-inf) [8]: 613 ng·h/mL
half-life [9]: 8.43 h
bioavailability [10]: 63%
Tmax [11]: 0.75 h
half-life [12]: 8.97 h
bioavailability [13]: 83.2%
Tmax [14]: 0.5 h
AUC(0-inf) [15]: 295 ng·h/mL
bioavailability [16]: 44.1%
half-life [17]: 15.2 h
Cmax [18]: 274 ng/mL
AUC(0-inf) [19]: 91.8 ng·h/mL
bioavailability [20]: 62.9%
half-life [21]: 18.9 h
half-life [22]: 16.1 h
Tmax [23]: 0.88 h
AUC(0-inf) [24]: 1570 ng·h/mL
bioavailability [25]: 57.6%
Cmax [26]: 5.48 ng/mL
AUC(0-inf) [27]: 202 ng·h/mL
bioavailability [28]: 85.9%
AUC(0-inf) [29]: 673 ng·h/mL
Tmax [30]: 0.88 h
Cmax [31]: 28.3 ng/mL
Tmax [32]: 0.75 h

O=C([C@@H]1C[C@H](N2CCN(c3nc(-c4ccccc4)cs3)CC2)CN1)N1CCSC1
IC50 (Dipeptidyl peptidase 4): 5.4 nM

Cc1cc(N2CCN([C@@H]3CN[C@H](C(=O)N4CCSC4)C3)CC2)n(-c2ccc(Cl)cc2)n1
IC50 (Dipeptidyl peptidase 4): 2.9 nM

Cc1cc(N2CCN([C@@H]3CN[C@H](C(=O)N4CCSC4)C3)CC2)n(-c2ccccc2F)n1
inhibition in vivo at 3 µmol/kg (Rattus norvegicus [1]): 75.9%
IC50 (Dipeptidyl peptidase 4): 0.53 nM
inhibition in vivo at 3 µmol/kg (Rattus norvegicus [2]): 34.7%

O=C([C@@H]1C[C@H](N2CCC(c3nnnn3-c3ccccc3)CC2)CN1)N1CCSC1
IC50 (Dipeptidyl peptidase 4): 2.9 nM

Cc1cc(N2CCN([C@@H]3CN[C@H](C(=O)N4CCSC4)C3)CC2)n(-c2ccc(F)cc2)n1
IC50 (Dipeptidyl peptidase 4): 2.3 nM

Cc1cc(N2CCN([C@@H]3CN[C@H](C(=O)N4CCSC4)C3)CC2)n(-c2ccccc2)n1
inhibition (Rattus norvegicus [33]): Dose-dependent effect
Activity (Rattus norvegicus [34]): Active
inhibition (Rattus norvegicus [35]): Active
Activity (Rattus norvegicus [36]): Active
Activity (Rattus norvegicus [37]): Active

O=C([C@@H]1C[C@H](N2CCN(c3nnnn3C3CCCCC3)CC2)CN1)N1CCSC1
inhibition in vivo at 3 µmol/kg (Rattus norvegicus [1]): 25.6%
IC50 (Dipeptidyl peptidase 4): 3.1 nM
inhibition in vivo at 3 µmol/kg (Rattus norvegicus [2]): 10.5%

O=C([C@@H]1C[C@H](N2CCN(c3ccccn3)CC2)CN1)N1CCSC1
inhibition in vivo at 3 µmol/kg (Rattus norvegicus [1]): 62.7%
inhibition in vivo at 3 µmol/kg (Rattus norvegicus [2]): 19.7%

Cc1cc(N2CCN([C@@H]3CN[C@H](C(=O)N4CCSC4)C3)CC2)n(-c2cccnc2)n1
inhibition in vivo at 3 µmol/kg (Rattus norvegicus [1]): 66.9%
IC50 (Dipeptidyl peptidase 4): 0.77 nM
inhibition in vivo at 3 µmol/kg (Rattus norvegicus [2]): 40.8%

Cc1cc(N2CCN([C@@H]3CN[C@H](C(=O)N4CCSC4)C3)CC2)n(-c2ccccc2)n1 [TENELIGLIPTIN]
inhibition in vivo at 3 µmol/kg (Rattus norvegicus [1]): 94.8%
inhibition in vivo at 3 µmol/kg (Rattus norvegicus [2]): 78.3%

Cc1cc(N2CCN([C@@H]3CN[C@H](C(=O)N4CCSC4)C3)CC2)n(-c2ccc(C#N)cc2)n1
IC50 (Dipeptidyl peptidase 4): 13 nM

O=C([C@@H]1C[C@H](N2CCN(c3ccnc4ccccc34)CC2)CN1)N1CCSC1
inhibition in vivo at 3 µmol/kg (Rattus norvegicus [1]): 29.7%
inhibition in vivo at 3 µmol/kg (Rattus norvegicus [2]): 12.9%

Cc1cc(N2CCN([C@@H]3CN[C@H](C(=O)N4CCSC4)C3)CC2)n(-c2ccc(C#N)cn2)n1
IC50 (Dipeptidyl peptidase 4): 14 nM

O=C([C@@H]1C[C@H](N2CCC(c3cc(C(F)(F)F)nn3-c3ccccc3)CC2)CN1)N1CCSC1
IC50 (Dipeptidyl peptidase 4): 2.5 nM

Cc1cc(N2CCN([C@@H]3CN[C@H](C(=O)N4CCSC4)C3)CC2)n(-c2ccncc2)n1
IC50 (Dipeptidyl peptidase 4): 4.7 nM
